Measurements from patent US6537527B1, “Skin lightening compositions” (Children's Hospital Medical Center, priority 1994, dated 2003).

Assay: Stability under selective acid hydrolysis in pH 5 buffer
Format: physicochemical
Details: pH 5 buffer solution
Description: To a stirred suspension comprising the benzyl protected intermediate (1.0 equiv.), 5% Pd/C (0.07 equiv.) and methanol is added 55% hydrazine hydrate (˜20 equiv.). The reaction mixture is slowly heated and maintained at reflux under an inert atmosphere until TLC analysis indicates complete consumption of starting material. Reaction mixture is cooled to room temperature, filtered through celite to remove catalyst and volatiles removed in-vacuo. Residue is then subjected to low pressure column chromatography with 7:3 hexane:ethyl acetate as eluent. Composition and purity of isolated white solid as determined by ^1H and ^13C NMR is consistent with the brominated compound shown.

stability to acid hydrolysis: stable under these conditions
SMILES: Oc1ccc(O[C@H]2OCCC[C@@H]2Br)cc1 [Iii]
